Measurements taken from patent US8198317B2, “Methylenedioxy phenolic compounds and their use to treat disease” (The Ohio State University Research Foundation, priority 2008, dated 2012).

Assays:
[1] = tested on: SREBP-2; assay: SREBP-2 precursor and mature form by western analysis in HepG2 cells; format: cell-based, human; details: HepG2, 1 hour
Description: FIG. 5C is a graph showing in vitro time course SREBP2 activation measured by the assessment of the mature form with INV-75 in the cytoplasm of treated cells. HepG2 cells were stimulated with INV-75 (0.1 mM) for four hours and the mature and precursor forms of SREBP2 was measured by western blot analysis. A total of three experiments were performed. *, p<0.01 by ANOVA compared to vehicle. The corresponding western blot is depicted on the right. Time is in hours on the right.
FIG. 5D is a graph showing dose dependent effects of INV-75 on SREBP2 activation assessed with mature form INV-75. HepG2 cells were stimulated with multiple concentrations of INV-75 for 1 hour and the mature and precursor forms of SREBP2 was measured by western blot analysis. A total of three experiments were performed. *, p<0.01 by ANOVA compared to vehicle. Dose of INV-75 is log molar concentration.
A family of transcription factors designated SREBP (sterol regulatory element binding proteins) regulate synthesis of cholesterol and fatty acids. […] The time course with this dose and dose dependence was analyzed. Next we assessed the expression of both precursor and mature form of SREBP-2 in the cytoplasm by western analysis. Both time course and dose dependence of mature form of SREBP-2 was analyzed.

[2] = tested on: p65 subunit of NF-κB; assay: NF-κB translocation assay in HUVECs; format: cell-based, human; details: HUVEC
Excerpt: NF-κB Translocation Assays: Cytokines such as TNF-α and interleukin-1 (IL-1) activate a pro-inflammatory response in endothelial cells. An early event in this response is nuclear translocation of the NF-κB transcription factor. This translocation causes the transcription of pro-inflammatory genes such as adhesion molecules VCAM-1, ICAM-1 and E-Selectin to be induced.
NF-κB is a heterodimer, composed of p65 and p50 subunits. Nuclear translocation is monitored by immunolocalization of the p65 subunit of NF-κB in fixed cells and is quantified by measuring the ratio of nuclear to cytoplasmic NF-κB signal. The nuclear translocation of NF-κB in stimulated cells such as primary human umbilical vein endothelial cells (HUVECs) therefore provides a readout that can be used to study the effects of bioactive compounds on the responsiveness of endothelium to pro-inflammatory stimuli. HUVECs were pre-treated with INV-75 at various concentrations (10 nM to 1 μM) or control (without [INV-75) for 24 hours. The media was then changed to one containing 10 ng/ml TNFα, or 1 μg/ml bovine serum albumin (vehicle) for 6 hours. p65 distribution was calculated as intensity in the cytoplasm and nucleus in regions of interest. At least 5 cells per high power field were used and at least 5 high power fields per concentration of the drug were used. The intensities were then expressed as the ratio of nuclear to cytoplasmic staining at least 5 cells per high power field. The data was then expressed as a ratio of the nuclear to cytoplasmic ratio without TNF-α.
In alternate experiments to assess NF-κB Activation extraction reagents were used to extract nuclear and cytoplasmic fraction from HUVEC cells previously treated with INV-75 at various concentrations for 6-24 hours before being stimulated with 2 ng/mL TNF-α for 6 hours. The expression of VCAM-1 and ICAM-1 were evaluated after TNF-α stimulation for 6 hours stimulation by western blot analysis. The p65 level in nuclear and cytoplasmic extracts were then analyzed by western blotting as described above.

[3] = tested on: thoracic aorta of WHHL rabbits; assay: Organ chamber experiments on thoracic aortic rings of WHHL rabbits; format: in vivo, rabbit
Description: Rabbits were euthanized by injection of lethal doses of pentobarbital. The ascending aortas was removed and 2 mm thoracic aortic rings were suspended in individual organ chambers filled with physiological salt solution buffer (sodium chloride, 130 mEq/L; potassium chloride, 4.7 mEq/L; calcium dichloride, 1.6 mEq/L; magnesium sulfate, 1.17 mEq/L; potassium diphosphate, 1.18 mEq/L; sodium bicarbonate, 14.9 mEq/L; EDTA, 0.026 mEq/L; and glucose, 99.1 mg/dL [5.5 mmol/L]; pH, 7.4), aerated continuously with 5% carbon dioxide in oxygen at 37° C. Vessels were allowed to equilibrate for at least 1 hour at a resting tension of 30 mN before being subjected to graded doses of agonists as described previously. The vasoconstrictor agonists included phenylephrine (PE), endothelin-1 (ET-1), or angiotensin II. Responses were expressed as a percentage of the peak response to 120 mEq/L of potassium chloride. The vessels subjected to PE were washed thoroughly and allowed to equilibrate for 1 hour before beginning experiments with acetylcholine, sodium nitroprusside (SNP) or insulin. […] Results were expressed as a percentage of pre-contraction by PE (0.1 μM). The rings exposed to acetylcholine were thoroughly washed and allowed to equilibrate for 1 hour. […] Results were expressed as a percentage of pre-contraction by PE (0.1 μM). INV-75 decreased aortic contraction by angiotensin II but had no effect on phenylephrine (FIG. 15 and FIG. 16).

SMILES | dose having an effect in increasing the mature form of SREBP-2 [1] [nM] | nuclear p65 expression (nuclear to cytoplasmic ratio) ([2]; 24 hours pre-treatment, then TNF-α, n=3) | concentration from which translocation of p65 to the nucleus is inhibited ([2]; TNF-α stimulated) [nM] | aortic contraction by angiotensin II ([3]; in words) | effect on insulin relaxation ([3]; in words) | effect on phenylephrine response ([3]; in words) | effect on response to endothelin-1 ([3]; in words) | effect on SNP response ([3]; results not shown) | ratio of nuclear to cytoplasmic staining of p65 ([2]; TNF-α, at all the concentrations tested)
CC(=O)Oc1cc2c(cc1[N+](=O)[O-])OCO2 [INV-75, 3,4-methylenedioxy-6-nitrophenyl acetate] | ≥ 10 | marked inhibition | ≥ 10 | decreased | marginal (non-significant effect | no effect | no effects | no effects | –
O=C(CCCCC1CCSS1)Oc1cc2c(cc1[N+](=O)[O-])OCO2 (stereo not drawn) [INV-7465, 3,4-Methylenedioxy 6-nitro phenyl lipoate] | – | – | – | – | – | – | – | – | decrease
